# Measured values as given in patent publication US20150018376A1, “PYRIMIDIN-4-YL)OXY)-1H-INDOLE-1-CARBOXAMIDE DERIVATIVES AND USE THEREOF” (NOVARTIS AG, priority 2013, published 2015).
# Assays:
# [1] = target: T1, KDR (GST-KDR(807-1356)) (Homo sapiens, UniProt P35968); assay: KDR protein kinase activity, LanthaScreen TR-FRET; assay type: biochemical; details: 2 μM ATP, 1 hour incubation
# T1 construct: GST-KDR(807-1356), internally produced recombinant protein; GST (N); made in house
# Description: A generic assay set-up has been run at room temperature on a liquid handling robot. To the assay plates containing 50 nL compound or control solutions, 4.5 μL of ATP mix (20 mM Tris-HCl pH7.4, 1 mM DTT, 0.025% Tween20, 0.01 mM Na3VO4, 10 mM MgCl2, 1 mM MnCl2, and 4 μM ATP) were added per well. Subsequently, 4.5 μL of enzyme-substrate mix (20 mM Tris-HCl pH7.4, 1 mM DTT, 0.025% Tween20, 0.01 mM Na3VO4, 10 mM MgCl2, 1 mM MnCl2, 0.5% BSA, 100 nM fluorescein labeled poly(EAY), and 0.76 nM KDR (GST-KDR(807-1356), internally produced recombinant protein) were added.
# The final reaction volume is 9.05 μL with final reagent concentrations of 20 mM Tris-HCl pH7.4, 1 mM DTT, 0.025% Tween20, 0.01 mM Na3VO4, 10 mM MgCl2, 1 mM MnCl2, including a generic concentration of 2 μM ATP, 50 nM of substrate fluorescein labeled poly(EAY), and 0.38 nM enzyme.
# After 1 hour of incubation the kinase reactions have been stopped by the addition of 4.5 μL of stop solution (20 mM Tris-HCl pH7.4, 1 mM DTT, 0.025% Tween20, 0.01 mM Na3VO4, 50 mM EDTA) immediately followed by 4.5 μL of antibody solution (20 mM Tris-HCl pH7.4, 1 mM DTT, 0.025% Tween20, 0.01 mM Na3VO4, 1.72 μg/ml Tb-PY20).
# After an incubation time of 45 min in the dark, the plates were transferred into a fluorescence reader and counted in time resolved fluorescence mode (settings according to the reagent supplier's recommendation). The effect of compound on the enzymatic activity was obtained from end point measurement.
# [2] = Stability of crystalline form; assay type: physicochemical; details: HCl salt
# Text: Crystalline form B of the HCl salt of N-(1-methyl-5-(trifluoromethyl)-1H-pyrazol-3-yl)-5-((6-((methylamino)methyl)pyrimidin-4-yl)oxy)-1H-indole-1-carboxamide was obtained using the same procedure as in Example 5 above.
# [3] = system: human hepatocytes; assay: Hepatocyte viability during incubation (ViaCount assay); assay type: cell-based; details: 10 μmol/L, percent viable cells relative to total cells
# Description: (§1) After thawing the cryopreserved hepatocytes, the viable cells were enriched by centrifugation in HepatoZYME cell culture medium (Gibco Invitrogen). For this purpose, the cells were added to 45 mL of a 37° C. warm HepatoZYME, and centrifuged at room temperature, at 50 g for 5 min. The supernatant containing dead cells was discarded and the cells in the pellet were re-suspended in HepatoZYME.
# (§2) The viability of the re-suspended hepatocytes was determined by a Guava EasyCyte™ Mini system using the ViaCount® assay as described by the supplier (Guava Technologies, Hayward, Calif., USA). After cell counting, the cell concentration was adjusted to approx. 1·10^6 viable cells/mL by adding HepatoZYME. Subsequently, the incubations were started by adding [^14C] N-(1-methyl-5-(trifluoromethyl)-1H-pyrazol-3-yl)-5-(6-((methylamino)methyl)pyrimidin-4-yloxy)-1H-indole-1-carboxamide and non-labeled N-(1-methyl-5-(trifluoromethyl)-1H-pyrazol-3-yl)-5-(6-((methylamino)methyl)pyrimidin-4-yloxy)-1H-indole-1-carboxamide as a solution in DMSO. The final concentration of DMSO in the incubations was 0.1% (v/v).
# (§3) To check the chemical stability of [^14C] N-(1-methyl-5-(trifluoromethyl)-1H-pyrazol-3-yl)-5-(6-((methylamino)methyl)pyrimidin-4-yloxy)-1H-indole-1-carboxamide under the incubation conditions, the compound was incubated at a concentration of 10 μmol/L in HepatoZYME without hepatocytes. A second series of control incubations was performed with hepatocytes of all species in the absence of the test compound to investigate the effect of the latter on the viability. These experiments were performed in a 12×6 mL MultiWell™ plate (Art. 393503, Beckton Dickinson).
# (§4) The incubations were performed at 37° C. under a humidified atmosphere of 95% relative humidity and 5% CO2 in a Heraeus incubator/cytoperm (Kendro Laboratory Products AG, Zürich, Switzerland). During the incubations, the plates and flasks were shaken at 300 strokes per minute. The viability of the hepatocytes was determined after 6 h (end of incubation).
# [4] = system: monkey hepatocytes; assay: as above; assay type: cell-based; details: 10 μmol/L, percent viable cells relative to total cells
# Description: as §1, §2, §3, §4
# [5] = system: rabbit hepatocytes; assay: as above; assay type: cell-based; details: 10 μmol/L, percent viable cells relative to total cells
# Description: as §1, §2, §3, §4
# [6] = system: rat hepatocytes; assay: as above; assay type: cell-based; details: 10 μmol/L, percent viable cells relative to total cells
# Description: as §1, §2, §3, §4
# [7] = system: hepatocytes from rat, rabbit, monkey, and human; assay: Hepatocyte viability during incubation, all species summarised; assay type: cell-based; details: 10 μmol/L, range over four species; initially 70-93%; controls without compound 4-21%
# Description: as §1
# as §2, with “(v/v). […]” for “(v/v).”
# The incubations were performed at 37° C. under a humidified atmosphere of 95% relative humidity and 5% CO2 in a Heraeus incubator/cytoperm (Kendro Laboratory Products AG, Zürich, Switzerland). […] The viability of the hepatocytes was determined after 6 h (end of incubation).
# [8] = Control incubations in the absence of hepatocytes or liver microsomes (chemical stability); assay type: in vitro ADME; details: 10 μmol/L in HepatoZYME without hepatocytes (6 h) or buffer without microsomes (60 min), 37° C.
# Description: as §3
# Microsomal incubations for metabolite profiles were performed at 10 μmol/L of [^14C] N-(1-methyl-5-(trifluoromethyl)-1H-pyrazol-3-yl)-5-(6-((methylamino)methyl)pyrimidin-4-yloxy)-1H-indole-1-carboxamide (approx. 50% radiolabeled) with one time point investigated (60 min). Incubations were performed at 37° C. in 0.1 mol/L sodium phosphate buffer pH 7.4. The final concentrations in the incubation cocktail were: 4 mmol/L UDPGA (Sigma-Aldrich), 1 mmol/L β-NADPH (Sigma-Aldrich), 5 mmol/L MgCl2, and 60 μg alamethicin (Sigma-Aldrich) per mg microsomal protein. The system was left to incubate for 10 min before adding the test compound to allow the pore formation with the alamethicin. The metabolic reaction was started by the addition of [^14C] […]
# T1 sequence (P35968 807-1356): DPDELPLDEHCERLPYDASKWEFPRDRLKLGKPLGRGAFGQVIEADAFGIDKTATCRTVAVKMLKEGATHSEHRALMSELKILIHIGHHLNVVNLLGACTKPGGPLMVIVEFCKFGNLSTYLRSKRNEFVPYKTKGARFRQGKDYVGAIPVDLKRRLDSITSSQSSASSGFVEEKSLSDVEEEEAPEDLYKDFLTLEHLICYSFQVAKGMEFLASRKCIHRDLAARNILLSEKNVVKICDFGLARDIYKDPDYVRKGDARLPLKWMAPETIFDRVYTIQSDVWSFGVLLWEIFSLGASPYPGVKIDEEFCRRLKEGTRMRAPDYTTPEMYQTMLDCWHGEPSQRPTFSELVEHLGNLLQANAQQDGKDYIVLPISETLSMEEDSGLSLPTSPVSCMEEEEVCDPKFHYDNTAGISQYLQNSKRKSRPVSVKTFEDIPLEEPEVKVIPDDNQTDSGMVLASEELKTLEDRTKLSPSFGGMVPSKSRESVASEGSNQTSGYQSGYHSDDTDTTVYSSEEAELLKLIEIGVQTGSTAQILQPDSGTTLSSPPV
structure (smiles),measurement,setting,value
"Cn1nc(NC(=O)n2ccc3cc(Oc4cc(/C=[N+](/C)[O-])ncn4)ccc32)cc1C(F)(F)F [Example 1, (Z)-N-((6-((1-((1-methyl-5-(trifluoromethyl)-1H-pyrazol-3-yl)carbamoyl)-1H-indol-5-yl)oxy)pyrimidin-4-yl)methylene)methanamine oxide]",IC50,[1],< 1 nM
"Cn1nc(NC(=O)n2ccc3cc(Oc4cc(C(N)=O)ncn4)ccc32)cc1C(F)(F)F [Example 2, 5-((6-Carbamoylpyrimidin-4-yl)oxy)-N-(1-methyl-5-(trifluoromethyl)-1H-pyrazol-3-yl)-1H-indole-1-carboxamide]",IC50,[1],20 nM
"Cn1nc(NC(=O)n2ccc3cc(Oc4cc(CN)ncn4)ccc32)cc1C(F)(F)F [Example 3, 5-(6-(aminomethyl)pyrimidin-4-yloxy)-N-(1-methyl-5-(trifluoromethyl)-1H-pyrazol-3-yl)-1H-indole-1-carboxamide]",IC50,[1],< 1 nM
"CNCc1cc(Oc2ccc3c(ccn3C(=O)Nc3cc(C(F)(F)F)n(C)n3)c2)ncn1 [Form B, N-(1-methyl-5-(trifluoromethyl)-1H-pyrazol-3-yl)-5-((6-((methylamino)methyl)pyrimidin-4-yl)oxy)-1H-indole-1-carboxamide]",stability of the crystalline form,[2],transient form that converts back to Form A
CNCc1cc(Oc2ccc3c(ccn3C(=O)Nc3cc(C(F)(F)F)n(C)n3)c2)ncn1 [[^14C] N-(1-methyl-5-(trifluoromethyl)-1H-pyrazol-3-yl)-5-(6-((methylamino)methyl)pyrimidin-4-yloxy)-1H-indole-1-carboxamide],Viability at 6 h,[3],25%
same,Viability at 6 h,[4],42%
same,Viability at 6 h,[5],8%
same,Viability at 6 h,[6],22%
same,viability of the hepatocytes after 6 hours,[7],8-42%
same,chemical stability in the incubation media,[8],confirmed the stability of the compound
